Reference: publication PMC2275798 (The Journal of biological chemistry, 2007)

How the values were obtained:
[1] = molecular target: T1, LSECtin carbohydrate-recognition domain (CRD) (Homo sapiens, UniProt Q6UXB4); format: binding
T1 sequence (Q6UXB4 160-293): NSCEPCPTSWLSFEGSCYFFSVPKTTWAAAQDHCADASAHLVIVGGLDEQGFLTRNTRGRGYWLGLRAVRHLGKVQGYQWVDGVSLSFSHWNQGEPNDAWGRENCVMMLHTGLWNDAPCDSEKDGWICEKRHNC

[2] = molecular target: T1, LSECtin carbohydrate-recognition domain (CRD); format: binding; remark: listed apart in the source
[3] = molecular target: T2, Ebola virus surface glycoprotein GP1 (Fc fusion) GP1 (Zaire ebolavirus, UniProt Q05320)
T2 chain: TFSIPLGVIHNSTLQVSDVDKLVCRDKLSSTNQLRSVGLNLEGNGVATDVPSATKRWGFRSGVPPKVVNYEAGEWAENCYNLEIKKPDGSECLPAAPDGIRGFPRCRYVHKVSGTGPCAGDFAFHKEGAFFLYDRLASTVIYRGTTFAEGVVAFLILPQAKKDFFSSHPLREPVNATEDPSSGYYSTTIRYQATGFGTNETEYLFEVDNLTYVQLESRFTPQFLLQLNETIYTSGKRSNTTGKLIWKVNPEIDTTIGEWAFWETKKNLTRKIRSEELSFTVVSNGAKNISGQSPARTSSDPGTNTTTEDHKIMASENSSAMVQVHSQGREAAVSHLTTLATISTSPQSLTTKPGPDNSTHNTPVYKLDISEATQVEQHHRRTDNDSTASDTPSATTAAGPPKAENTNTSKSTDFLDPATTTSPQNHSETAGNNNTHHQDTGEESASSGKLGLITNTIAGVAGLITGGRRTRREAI

**Q.** For `CC(=O)N[C@H]1[C@H](O[C@@H]2C(O)O[C@H](CO)[C@@H](O)[C@@H]2O)O[C@H](CO)[C@@H](O)[C@@H]1O` (stereo partly drawn) [GlcNAcβ1-2Man], which Ki [1] is on record?
**A.** Its Ki is 3.5 µM.

**Q.** `OC[C@H]1O[C@H](OC[C@H]2OC(O)[C@@H](O)[C@@H](O[C@H]3O[C@H](CO)[C@@H](O)[C@H](O)[C@@H]3O)[C@@H]2O)[C@@H](O)[C@@H](O)[C@@H]1O` (stereo partly drawn) [branched trimannose oligosaccharide] was tested. Which KI [2] did it give?
**A.** The KI was “The branched trimannose oligosaccharide, which forms the core of the complex glycans”.

B1: LSECtin CRD (protein)
chain: FEGSCYFFSVPKTTWAAAQDHCADASAHLVIVGGLDEQGFLTRNTRGRGYWLGLRAVRHLGKVQGYQWVDGVSLSFSHWNQGEPNDAWGRENCVMMLHTGLWNDAPCDSEKDGWIC
**Q.** B1 was tested. Which Kd [3] did it give?
**A.** Its Kd is 0.0037 µM.
